Earlier results, collected in patent US10138221B2, “Salts of nilotinib and polymorphs thereof” (Sun Pharmaceutical Industries Limited, priority 2014, dated 2018).
Like-named read-outs stand apart in the source and are kept apart here.

How the values were obtained:
[1] = low solubility/low permeability

## Cc1cn(-c2cc(NC(=O)c3ccc(C)c(Nc4nccc(-c5cccnc5)n4)c3)cc(C(F)(F)F)c2)cn1 [Nilotinib, 4-methyl-N-[3-(4-methyl-1H-imidazol-1-yl)-5-(trifluoromethyl)phenyl]-3-[[4-(3-pyridinyl)-2-pyrimidinyl]amino]-benzamide]
[1]
  Biopharmaceutics Classification System (BCS) class (solubility/permeability): class IV
Acidic media
  solubility: soluble
Buffer solutions of pH 4.5 and higher
  solubility: practically insoluble
